Results: US10377753B2, “Substituted 4-azaindoles and their use as GluN2B receptor modulators” (Janssen Pharmaceutica NV, priority 2015, dated 2019)

Molecular target: cloned human NR1/NR2B ion channels (Homo sapiens (Human), UniProt Q05586+Q13224)
Test: HNR2BC: effects of test articles on cloned human NR1/NR2B ion channels expressed in mammalian cells (FLIPR calcium flux)
Type: cell-based
Settings: cloned human NR1/NR2B ion channels, Table 5
In short: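 Compounds were added to dye-loaded cells for 5 min with fluorescence monitored for agonism, followed by co-agonists (glutamate ~EC80, glycine 10 μM saturating) for 5 min. Cells stably expressed inducible human NR1/NR2B, and the buffer was pH 7.4. The FLIPR Ca2+ flux signal was normalized against control wells.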

Sequence of cloned human NR1/NR2B ion channels (Q13224 27-1484, other chains not shown): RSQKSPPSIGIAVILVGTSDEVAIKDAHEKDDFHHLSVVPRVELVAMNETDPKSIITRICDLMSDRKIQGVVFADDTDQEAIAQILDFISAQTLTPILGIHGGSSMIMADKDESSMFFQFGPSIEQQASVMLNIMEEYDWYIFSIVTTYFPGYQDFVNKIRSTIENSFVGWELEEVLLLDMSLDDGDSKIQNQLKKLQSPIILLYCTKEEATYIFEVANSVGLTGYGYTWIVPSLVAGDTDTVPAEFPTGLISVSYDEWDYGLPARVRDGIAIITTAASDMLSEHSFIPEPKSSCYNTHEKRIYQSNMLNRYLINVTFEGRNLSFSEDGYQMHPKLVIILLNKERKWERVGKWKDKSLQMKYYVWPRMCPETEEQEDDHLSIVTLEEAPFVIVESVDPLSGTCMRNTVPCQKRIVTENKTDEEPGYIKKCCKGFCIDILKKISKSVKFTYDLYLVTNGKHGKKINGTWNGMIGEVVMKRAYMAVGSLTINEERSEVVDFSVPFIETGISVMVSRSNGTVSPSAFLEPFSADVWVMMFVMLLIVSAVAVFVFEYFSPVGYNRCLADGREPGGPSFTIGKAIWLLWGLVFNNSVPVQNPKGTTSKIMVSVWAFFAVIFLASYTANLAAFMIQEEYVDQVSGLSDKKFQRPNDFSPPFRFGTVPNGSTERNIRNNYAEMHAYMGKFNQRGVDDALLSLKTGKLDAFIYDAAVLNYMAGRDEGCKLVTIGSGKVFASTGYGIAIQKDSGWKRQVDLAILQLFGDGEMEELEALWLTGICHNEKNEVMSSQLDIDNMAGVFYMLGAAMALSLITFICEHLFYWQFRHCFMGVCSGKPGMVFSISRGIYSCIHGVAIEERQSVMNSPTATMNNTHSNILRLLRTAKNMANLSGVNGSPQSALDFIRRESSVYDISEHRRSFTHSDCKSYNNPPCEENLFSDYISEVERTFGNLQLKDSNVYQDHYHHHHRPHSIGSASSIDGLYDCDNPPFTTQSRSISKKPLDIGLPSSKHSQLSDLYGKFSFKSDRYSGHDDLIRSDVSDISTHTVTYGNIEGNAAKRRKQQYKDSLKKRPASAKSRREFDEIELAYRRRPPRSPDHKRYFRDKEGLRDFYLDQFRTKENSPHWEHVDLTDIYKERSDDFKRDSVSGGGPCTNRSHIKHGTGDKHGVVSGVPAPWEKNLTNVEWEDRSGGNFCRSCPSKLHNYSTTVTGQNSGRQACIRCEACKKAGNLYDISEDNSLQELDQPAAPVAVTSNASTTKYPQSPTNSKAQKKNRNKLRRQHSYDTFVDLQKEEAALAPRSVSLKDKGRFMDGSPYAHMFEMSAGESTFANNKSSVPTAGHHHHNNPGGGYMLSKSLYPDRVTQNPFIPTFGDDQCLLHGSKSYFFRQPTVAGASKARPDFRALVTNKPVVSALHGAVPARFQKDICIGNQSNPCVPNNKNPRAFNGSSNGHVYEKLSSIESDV

Row | IC50 | Compound
1 | 39.8 nM | Cc1c(F)ccc(-c2cnc3c(C)cn(CC(=O)N4CC(F)C4)c3c2)c1F [Example 629, 2-[6-(2,4-Difluoro-3-methyl-phenyl)-3-methyl-pyrrolo[3,2-b]pyridin-1-yl]-1-(3-fluoroazetidin-1-yl)ethanone]
2 | 251 nM | CCN(C)C(=O)Cn1cc(C)c2ncc(-c3ccc(C)s3)cc21 [Example 630, N-Ethyl-N-methyl-2-[3-methyl-6-(5-methyl-2-thienyl)pyrrolo[3,2-b]pyridin-1-yl]acetamide]
3 | 158 nM | Cc1ccc(-c2cnc3c(C)cn(CC(=O)N4CCCC4)c3c2)s1 [Example 631, 2-[3-Methyl-6-(5-methyl-2-thienyl)pyrrolo[3,2-b]pyridin-1-yl]-1-pyrrolidin-1-yl-ethanone]
4 | 200 nM | Cc1ccc(-c2cnc3c(C)cn(CC(=O)N4CC(F)(F)C4)c3c2)s1 [Example 632, 1-(3,3-Difluoroazetidin-1-yl)-2-[3-methyl-6-(5-methyl-2-thienyl)pyrrolo[3,2-b]pyridin-1-yl]ethanone]
5 | 50.1 nM | Cc1ccc(-c2cnc3c(C)cn(CC(=O)N4CCC4)c3c2)s1 [Example 633, 1-(Azetidin-1-yl)-2-[3-methyl-6-(5-methyl-2-thienyl)pyrrolo[3,2-b]pyridin-1-yl]ethanone]
6 | 631 nM | Cc1ccc(-c2cnc3c(C)cn(CC(=O)N4CC(F)C4)c3c2)s1 [Example 634, 1-(3-Fluoroazetidin-1-yl)-2-[3-methyl-6-(5-methyl-2-thienyl)pyrrolo[3,2-b]pyridin-1-yl]ethanone]
7 | 316 nM | Cc1cn(CC(=O)N2CC(F)C2)c2cc(-c3cc(F)cc(F)c3)cnc12 [Example 635, 2-[6-(3,5-Difluorophenyl)-3-methyl-pyrrolo[3,2-b]pyridin-1-yl]-1-(3-fluoroazetidin-1-yl)ethanone]
8 | 158 nM | Cc1cn(CC(=O)N2CC(F)C2)c2cc(-c3ccc(Cl)s3)cnc12 [Example 636, 2-[6-(5-Chloro-2-thienyl)-3-methyl-pyrrolo[3,2-b]pyridin-1-yl]-1-(3-fluoroazetidin-1-yl)ethanone]
9 | 316 nM | Cc1ccc(-c2cnc3c(C)cn(CC(=O)N(C)C)c3c2)s1 [Example 637, N,N-Dimethyl-2-[3-methyl-6-(5-methyl-2-thienyl)pyrrolo[3,2-b]pyridin-1-yl]acetamide]
10 | 126 nM | Cc1cn(CC(=O)N2CC(F)C2)c2cc(-c3ccccc3F)cnc12 [Example 638, 1-(3-Fluoroazetidin-1-yl)-2-[6-(2-fluorophenyl)-3-methyl-pyrrolo[3,2-b]pyridin-1-yl]ethanone]
11 | 200 nM | CN(C)C(=O)Cn1ccc2ncc(-c3ccc(C(F)F)s3)cc21 [Example 639, 2-[6-[5-(Difluoromethyl)-2-thienyl]pyrrolo[3,2-b]pyridin-1-yl]-N,N-dimethyl-acetamide]
